The compounds below were run on 475296-252-R-J1-PDC spheroid viability (assay: Anticancer human tumor 475296-252-R-J1-PDC patient-derived rectal carcinoma cell line growth inhibition [PI3K]). Details: second compound 0.0316 µM; first compound 0.316 µM; active compounds read low; spheroids with HUVEC and MSC.
How it was run: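 Three cell types, namely tumor cells, endothelial cells and mesenchymal stem cells, formed each spheroid. Combinations with four PI3K inhibitors were screened at clinically achievable concentrations decreasing by half-log, and spheroid viability was recorded.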
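Note: spheroids exposed to agents for seven days before readout.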

SMILES	viability, T/C [%]
Cn1ncc(Cl)c1-c1cc(C(=O)NC(CN)Cc2cccc(F)c2)sc1Cl (configuration not stated) + COc1c(OCCCN2CCOCC2)ccc2c3n(c(=NC(=O)c4cnc(N)nc4)nc12)CCN3	90.4
Cn1nccc1Nc1nccc(-c2ccn(C(CO)c3ccc(Cl)c(F)c3)c(=O)c2)n1 (configuration not stated) + COc1c(OCCCN2CCOCC2)ccc2c3n(c(=NC(=O)c4cnc(N)nc4)nc12)CCN3	80.2

Same assay, conditions: second compound 0.0316 µM; first compound 1 µM; active compounds read low; spheroids with HUVEC and MSC

SMILES	viability, T/C [%]
CC(C)NCC(C(=O)N1CCN(c2ncnc3c2C(C)CC3O)CC1)c1ccc(Cl)cc1 (configuration not stated) + COc1c(OCCCN2CCOCC2)ccc2c3n(c(=NC(=O)c4cnc(N)nc4)nc12)CCN3	79.5
CCN1CCN(Cc2ccc(Nc3ncc(F)c(-c4cc(F)c5nc(C)n(C(C)C)c5c4)n3)nc2)CC1 + COc1c(OCCCN2CCOCC2)ccc2c3n(c(=NC(=O)c4cnc(N)nc4)nc12)CCN3	64.4
Cn1ncc(Cl)c1-c1cc(C(=O)NC(CN)Cc2cccc(F)c2)sc1Cl (configuration not stated) + COc1c(OCCCN2CCOCC2)ccc2c3n(c(=NC(=O)c4cnc(N)nc4)nc12)CCN3	59
Cn1nccc1Nc1nccc(-c2ccn(C(CO)c3ccc(Cl)c(F)c3)c(=O)c2)n1 (configuration not stated) + COc1c(OCCCN2CCOCC2)ccc2c3n(c(=NC(=O)c4cnc(N)nc4)nc12)CCN3	84.6

Same assay, conditions: second compound 0.0316 µM; first compound 3.16 µM; active compounds read low; spheroids with HUVEC and MSC

SMILES	viability, T/C [%]
CC(C)NCC(C(=O)N1CCN(c2ncnc3c2C(C)CC3O)CC1)c1ccc(Cl)cc1 (configuration not stated) + COc1c(OCCCN2CCOCC2)ccc2c3n(c(=NC(=O)c4cnc(N)nc4)nc12)CCN3	77
Cn1ncc(Cl)c1-c1cc(C(=O)NC(CN)Cc2cccc(F)c2)sc1Cl (configuration not stated) + COc1c(OCCCN2CCOCC2)ccc2c3n(c(=NC(=O)c4cnc(N)nc4)nc12)CCN3	53
Cn1nccc1Nc1nccc(-c2ccn(C(CO)c3ccc(Cl)c(F)c3)c(=O)c2)n1 (configuration not stated) + COc1c(OCCCN2CCOCC2)ccc2c3n(c(=NC(=O)c4cnc(N)nc4)nc12)CCN3	45.6

Same assay, conditions: second compound 0.0316 µM; first compound 10 µM; active compounds read low; spheroids with HUVEC and MSC

SMILES	viability, T/C [%]
CC(C)NCC(C(=O)N1CCN(c2ncnc3c2C(C)CC3O)CC1)c1ccc(Cl)cc1 (configuration not stated) + COc1c(OCCCN2CCOCC2)ccc2c3n(c(=NC(=O)c4cnc(N)nc4)nc12)CCN3	78.2
Cn1ncc(Cl)c1-c1cc(C(=O)NC(CN)Cc2cccc(F)c2)sc1Cl (configuration not stated) + COc1c(OCCCN2CCOCC2)ccc2c3n(c(=NC(=O)c4cnc(N)nc4)nc12)CCN3	36.9
Cn1nccc1Nc1nccc(-c2ccn(C(CO)c3ccc(Cl)c(F)c3)c(=O)c2)n1 (configuration not stated) + COc1c(OCCCN2CCOCC2)ccc2c3n(c(=NC(=O)c4cnc(N)nc4)nc12)CCN3	42.7

Same assay, conditions: second compound 0.1 µM; first compound 0.00316 µM; active compounds read low; spheroids with HUVEC and MSC

SMILES	viability, T/C [%]
CCN1CCN(Cc2ccc(Nc3ncc(F)c(-c4cc(F)c5nc(C)n(C(C)C)c5c4)n3)nc2)CC1 + COc1c(OCCCN2CCOCC2)ccc2c3n(c(=NC(=O)c4cnc(N)nc4)nc12)CCN3	86.3

Same assay, conditions: second compound 0.1 µM; first compound 0.01 µM; active compounds read low; spheroids with HUVEC and MSC

SMILES	viability, T/C [%]
CCN1CCN(Cc2ccc(Nc3ncc(F)c(-c4cc(F)c5nc(C)n(C(C)C)c5c4)n3)nc2)CC1 + COc1c(OCCCN2CCOCC2)ccc2c3n(c(=NC(=O)c4cnc(N)nc4)nc12)CCN3	94.4

Same assay, conditions: second compound 0.1 µM; first compound 0.0316 µM; active compounds read low; spheroids with HUVEC and MSC

SMILES	viability, T/C [%]
CC(C)NCC(C(=O)N1CCN(c2ncnc3c2C(C)CC3O)CC1)c1ccc(Cl)cc1 (configuration not stated) + COc1c(OCCCN2CCOCC2)ccc2c3n(c(=NC(=O)c4cnc(N)nc4)nc12)CCN3	92.8
CCN1CCN(Cc2ccc(Nc3ncc(F)c(-c4cc(F)c5nc(C)n(C(C)C)c5c4)n3)nc2)CC1 + COc1c(OCCCN2CCOCC2)ccc2c3n(c(=NC(=O)c4cnc(N)nc4)nc12)CCN3	84.8
Cn1ncc(Cl)c1-c1cc(C(=O)NC(CN)Cc2cccc(F)c2)sc1Cl (configuration not stated) + COc1c(OCCCN2CCOCC2)ccc2c3n(c(=NC(=O)c4cnc(N)nc4)nc12)CCN3	80
Cn1nccc1Nc1nccc(-c2ccn(C(CO)c3ccc(Cl)c(F)c3)c(=O)c2)n1 (configuration not stated) + COc1c(OCCCN2CCOCC2)ccc2c3n(c(=NC(=O)c4cnc(N)nc4)nc12)CCN3	78

Same assay, conditions: second compound 0.1 µM; first compound 0.1 µM; active compounds read low; spheroids with HUVEC and MSC

SMILES	viability, T/C [%]
CC(C)NCC(C(=O)N1CCN(c2ncnc3c2C(C)CC3O)CC1)c1ccc(Cl)cc1 (configuration not stated) + COc1c(OCCCN2CCOCC2)ccc2c3n(c(=NC(=O)c4cnc(N)nc4)nc12)CCN3	77.9
CCN1CCN(Cc2ccc(Nc3ncc(F)c(-c4cc(F)c5nc(C)n(C(C)C)c5c4)n3)nc2)CC1 + COc1c(OCCCN2CCOCC2)ccc2c3n(c(=NC(=O)c4cnc(N)nc4)nc12)CCN3	87.2
Cn1ncc(Cl)c1-c1cc(C(=O)NC(CN)Cc2cccc(F)c2)sc1Cl (configuration not stated) + COc1c(OCCCN2CCOCC2)ccc2c3n(c(=NC(=O)c4cnc(N)nc4)nc12)CCN3	79.4
Cn1nccc1Nc1nccc(-c2ccn(C(CO)c3ccc(Cl)c(F)c3)c(=O)c2)n1 (configuration not stated) + COc1c(OCCCN2CCOCC2)ccc2c3n(c(=NC(=O)c4cnc(N)nc4)nc12)CCN3	81

Same assay, conditions: second compound 0.1 µM; first compound 0.316 µM; active compounds read low; spheroids with HUVEC and MSC

SMILES	viability, T/C [%]
CC(C)NCC(C(=O)N1CCN(c2ncnc3c2C(C)CC3O)CC1)c1ccc(Cl)cc1 (configuration not stated) + COc1c(OCCCN2CCOCC2)ccc2c3n(c(=NC(=O)c4cnc(N)nc4)nc12)CCN3	87.6
CCN1CCN(Cc2ccc(Nc3ncc(F)c(-c4cc(F)c5nc(C)n(C(C)C)c5c4)n3)nc2)CC1 + COc1c(OCCCN2CCOCC2)ccc2c3n(c(=NC(=O)c4cnc(N)nc4)nc12)CCN3	85.9
Cn1ncc(Cl)c1-c1cc(C(=O)NC(CN)Cc2cccc(F)c2)sc1Cl (configuration not stated) + COc1c(OCCCN2CCOCC2)ccc2c3n(c(=NC(=O)c4cnc(N)nc4)nc12)CCN3	72.6
Cn1nccc1Nc1nccc(-c2ccn(C(CO)c3ccc(Cl)c(F)c3)c(=O)c2)n1 (configuration not stated) + COc1c(OCCCN2CCOCC2)ccc2c3n(c(=NC(=O)c4cnc(N)nc4)nc12)CCN3	64.3

Same assay, conditions: second compound 0.1 µM; first compound 1 µM; active compounds read low; spheroids with HUVEC and MSC

SMILES	viability, T/C [%]
CC(C)NCC(C(=O)N1CCN(c2ncnc3c2C(C)CC3O)CC1)c1ccc(Cl)cc1 (configuration not stated) + COc1c(OCCCN2CCOCC2)ccc2c3n(c(=NC(=O)c4cnc(N)nc4)nc12)CCN3	72.1
CCN1CCN(Cc2ccc(Nc3ncc(F)c(-c4cc(F)c5nc(C)n(C(C)C)c5c4)n3)nc2)CC1 + COc1c(OCCCN2CCOCC2)ccc2c3n(c(=NC(=O)c4cnc(N)nc4)nc12)CCN3	63.8
Cn1ncc(Cl)c1-c1cc(C(=O)NC(CN)Cc2cccc(F)c2)sc1Cl (configuration not stated) + COc1c(OCCCN2CCOCC2)ccc2c3n(c(=NC(=O)c4cnc(N)nc4)nc12)CCN3	56.4
Cn1nccc1Nc1nccc(-c2ccn(C(CO)c3ccc(Cl)c(F)c3)c(=O)c2)n1 (configuration not stated) + COc1c(OCCCN2CCOCC2)ccc2c3n(c(=NC(=O)c4cnc(N)nc4)nc12)CCN3	53.6

Same assay, conditions: second compound 0.1 µM; first compound 3.16 µM; active compounds read low; spheroids with HUVEC and MSC

SMILES	viability, T/C [%]
CC(C)NCC(C(=O)N1CCN(c2ncnc3c2C(C)CC3O)CC1)c1ccc(Cl)cc1 (configuration not stated) + COc1c(OCCCN2CCOCC2)ccc2c3n(c(=NC(=O)c4cnc(N)nc4)nc12)CCN3	75.2
Cn1ncc(Cl)c1-c1cc(C(=O)NC(CN)Cc2cccc(F)c2)sc1Cl (configuration not stated) + COc1c(OCCCN2CCOCC2)ccc2c3n(c(=NC(=O)c4cnc(N)nc4)nc12)CCN3	54.3
Cn1nccc1Nc1nccc(-c2ccn(C(CO)c3ccc(Cl)c(F)c3)c(=O)c2)n1 (configuration not stated) + COc1c(OCCCN2CCOCC2)ccc2c3n(c(=NC(=O)c4cnc(N)nc4)nc12)CCN3	24

Same assay, conditions: second compound 0.1 µM; first compound 10 µM; active compounds read low; spheroids with HUVEC and MSC

SMILES	viability, T/C [%]
CC(C)NCC(C(=O)N1CCN(c2ncnc3c2C(C)CC3O)CC1)c1ccc(Cl)cc1 (configuration not stated) + COc1c(OCCCN2CCOCC2)ccc2c3n(c(=NC(=O)c4cnc(N)nc4)nc12)CCN3	62
Cn1ncc(Cl)c1-c1cc(C(=O)NC(CN)Cc2cccc(F)c2)sc1Cl (configuration not stated) + COc1c(OCCCN2CCOCC2)ccc2c3n(c(=NC(=O)c4cnc(N)nc4)nc12)CCN3	27.1
Cn1nccc1Nc1nccc(-c2ccn(C(CO)c3ccc(Cl)c(F)c3)c(=O)c2)n1 (configuration not stated) + COc1c(OCCCN2CCOCC2)ccc2c3n(c(=NC(=O)c4cnc(N)nc4)nc12)CCN3	8.76

Same assay, conditions: second compound 0.316 µM; first compound 0.00316 µM; active compounds read low; spheroids with HUVEC and MSC

SMILES	viability, T/C [%]
CCN1CCN(Cc2ccc(Nc3ncc(F)c(-c4cc(F)c5nc(C)n(C(C)C)c5c4)n3)nc2)CC1 + COc1c(OCCCN2CCOCC2)ccc2c3n(c(=NC(=O)c4cnc(N)nc4)nc12)CCN3	74.3

Same assay, conditions: second compound 0.316 µM; first compound 0.01 µM; active compounds read low; spheroids with HUVEC and MSC

SMILES	viability, T/C [%]
CCN1CCN(Cc2ccc(Nc3ncc(F)c(-c4cc(F)c5nc(C)n(C(C)C)c5c4)n3)nc2)CC1 + COc1c(OCCCN2CCOCC2)ccc2c3n(c(=NC(=O)c4cnc(N)nc4)nc12)CCN3	78.4

Same assay, conditions: second compound 0.316 µM; first compound 0.0316 µM; active compounds read low; spheroids with HUVEC and MSC

SMILES	viability, T/C [%]
CC(C)NCC(C(=O)N1CCN(c2ncnc3c2C(C)CC3O)CC1)c1ccc(Cl)cc1 (configuration not stated) + COc1c(OCCCN2CCOCC2)ccc2c3n(c(=NC(=O)c4cnc(N)nc4)nc12)CCN3	68.6
CCN1CCN(Cc2ccc(Nc3ncc(F)c(-c4cc(F)c5nc(C)n(C(C)C)c5c4)n3)nc2)CC1 + COc1c(OCCCN2CCOCC2)ccc2c3n(c(=NC(=O)c4cnc(N)nc4)nc12)CCN3	72.5
Cn1ncc(Cl)c1-c1cc(C(=O)NC(CN)Cc2cccc(F)c2)sc1Cl (configuration not stated) + COc1c(OCCCN2CCOCC2)ccc2c3n(c(=NC(=O)c4cnc(N)nc4)nc12)CCN3	69.2
Cn1nccc1Nc1nccc(-c2ccn(C(CO)c3ccc(Cl)c(F)c3)c(=O)c2)n1 (configuration not stated) + COc1c(OCCCN2CCOCC2)ccc2c3n(c(=NC(=O)c4cnc(N)nc4)nc12)CCN3	74.7
